Test results as given in patent publication US9074014B2 (Ipsen Pharma S.A.S., priority 2008, dated 2015).
Where a SMILES comes first, the peptide text is derived from it. Where no end group is shown, it is not given here. [ ]: non-standard residue; d: D form. Tic = O=C(O)[C@@H]1Cc2ccccc2CN1; Ac6c = NC1(C(=O)O)CCCCC1; Nle = CCCC[C@H](N)C(=O)O; Ac5c = NC1(C(=O)O)CCCC1; Aib = CC(C)(N)C(=O)O

How the values were obtained:
[1] = Human plasma half-life assay; format: in vitro ADME; conditions: human plasma, 37° C., LC-MS; for half-life at 0.1 mg/ml: read-out: Human Plasma T½ (converted)
[2] = Rat plasma half-life assay; format: in vitro ADME; conditions: rat plasma, 37° C., LC-MS; for half-life at 0.1 mg/ml: read-out: Rat Plasma T½ (converted)

Work on `CCCC[C@H](NC(=O)[C@H](C)NC(=O)[C@@H](NC(=O)[C@H](CO)NC(=O)[C@H](Cc1ccc(O)cc1)NC(=O)[C@H](CC(=O)O)NC(=O)[C@H](CO)NC(=O)C1(NC(=O)[C@H](Cc2ccccc2)NC(=O)[C@@H](NC(=O)CNC(=O)[C@H](CCC(=O)O)NC(=O)C2(NC(=O)[C@@H](N)Cc3ccc(O)cc3)CCCCC2)[C@@H](C)O)CCCCC1)[C@@H](C)CC)C(=O)N[C@@H](CC(=O)O)C(=O)N[C@@H](CCCCN)C(=O)N[C@H](C(=O)N[C@@H](Cc1c[nH]cn1)C(=O)N[C@@H](CCC(N)=O)C(=O)N[C@@H](CCC(N)=O)C(=O)N[C@@H](CC(=O)O)C(=O)N[C@@H](Cc1ccccc1)C(=O)N[C@H](C(=O)N[C@@H](CC(N)=O)C(=O)N[C@@H](Cc1c[nH]c2ccccc12)C(=O)N[C@@H](CC(C)C)C(=O)N[C@@H](CC(C)C)C(=O)N[C@@H](C)C(=O)N[C@@H](CCC(N)=O)C(=O)N[C@@H](CCCCN)C(N)=O)C(C)C)[C@@H](C)CC` [Example 36, (A6c^2,7, Nle^14)hGIP(1-30)-NH2] (H-Y[Ac6c]EGTF[Ac6c]SDYSIA[Nle]DKIHQQDFVNWLLAQK-NH2; N-terminus assumed) yielded a half-life at 0.1 mg/ml [1] of 23.7 h and a half-life at 0.1 mg/ml [2] of 29.2 h.
For “Y[Aib]E[Aib]TFISDYSIAMDKIHQQDFVNWLLAQKGKKNDWKHNITQ-OH [Example 10, (Aib^2, 4)hGIP(1-42)-OH]”, the half-life at 0.1 mg/ml [1] was greater than 48 h and the half-life at 0.1 mg/ml [2] was 4 h.
With “Y[Aib]EGTFI[Aib]DYSIAMDKIHQQDFVNWLLAQKGKKNDWKHNITQ-OH [Example 9, (Aib^2, 8)hGIP(1-42)-OH]” the half-life at 0.1 mg/ml [1] was greater than 48 h and the half-life at 0.1 mg/ml [2] was 9.2 h.
Work on `CC[C@H](C)[C@H](NC(=O)[C@H](CO)NC(=O)[C@H](Cc1ccc(O)cc1)NC(=O)[C@H](CC(=O)O)NC(=O)[C@H](CO)NC(=O)C1(NC(=O)[C@H](Cc2ccccc2)NC(=O)[C@@H](NC(=O)CNC(=O)[C@H](CCC(=O)O)NC(=O)C(C)(C)NC(=O)[C@@H](N)Cc2ccc(O)cc2)[C@@H](C)O)CCCC1)C(=O)N[C@@H](C)C(=O)N[C@@H](CCSC)C(=O)N[C@@H](CC(=O)O)C(=O)N[C@@H](CCCCN)C(=O)N[C@H](C(=O)N[C@@H](Cc1c[nH]cn1)C(=O)N[C@@H](CCC(N)=O)C(=O)N[C@@H](CCC(N)=O)C(=O)N[C@@H](CC(=O)O)C(=O)N[C@@H](Cc1ccccc1)C(=O)N[C@H](C(=O)N[C@@H](CC(N)=O)C(=O)N[C@@H](Cc1c[nH]c2ccccc12)C(=O)N[C@@H](CC(C)C)C(=O)N[C@@H](CC(C)C)C(=O)N[C@@H](C)C(=O)N[C@@H](CCC(N)=O)C(=O)N[C@@H](CCCCN)C(N)=O)C(C)C)[C@@H](C)CC` [Example 12, (Aib^2, A5c^7)hGIP(1-30)-NH2] yielded a half-life at 0.1 mg/ml [1] of 20.5 h and a half-life at 0.1 mg/ml [2] greater than 48 h.
In the case of `CC[C@H](C)[C@H](NC(=O)[C@H](CO)NC(=O)[C@H](Cc1ccc(O)cc1)NC(=O)[C@H](CC(=O)O)NC(=O)[C@H](CO)NC(=O)C1(NC(=O)[C@H](Cc2ccccc2)NC(=O)[C@@H](NC(=O)CNC(=O)[C@@H]2CCCN2C(=O)[C@H](C)NC(=O)[C@@H](N)Cc2ccc(O)cc2)[C@@H](C)O)CCCC1)C(=O)N[C@@H](C)C(=O)NC1(C(=O)N[C@@H](CC(=O)O)C(=O)N[C@@H](CCCCN)C(=O)N[C@H](C(=O)N[C@@H](Cc2c[nH]cn2)C(=O)N[C@@H](CCC(N)=O)C(=O)N[C@@H](CCC(N)=O)C(=O)N[C@@H](CC(=O)O)C(=O)N[C@@H](Cc2ccccc2)C(=O)N[C@H](C(=O)N[C@@H](CC(N)=O)C(=O)N[C@@H](Cc2c[nH]c3ccccc23)C(=O)N[C@@H](CC(C)C)C(=O)N[C@@H](CC(C)C)C(=O)N[C@@H](C)C(=O)N[C@@H](CCC(N)=O)C(=O)N[C@@H](CCCCN)C(=O)NCC(=O)N[C@@H](CCCCN)C(=O)N[C@@H](CCCCN)C(=O)N[C@@H](CC(N)=O)C(=O)N[C@@H](CC(=O)O)C(=O)N[C@@H](Cc2c[nH]c3ccccc23)C(=O)N[C@@H](CCCCN)C(=O)N[C@@H](Cc2c[nH]cn2)C(=O)N[C@@H](CC(N)=O)C(=O)N[C@H](C(=O)N[C@H](C(=O)N[C@@H](CCC(N)=O)C(=O)O)[C@@H](C)O)[C@@H](C)CC)C(C)C)[C@@H](C)CC)CCCC1` [Example 76, (Pro^3, A5c^7, 14)hGIP(1-42)-OH], the half-life at 0.1 mg/ml [1] is reported as 55.9 h and the half-life at 0.1 mg/ml [2] is reported as 1 h.
Molecule “Y[Aib]EGTF[Ac5c]SDYSIAMDKIHQQDFVNWLLAQKGKKNDWKHNITQ-OH [Example 6, (Aib^2, A5c^7)hGIP(1-42)-OH]” has a half-life at 0.1 mg/ml [1] greater than 48 h and a half-life at 0.1 mg/ml [2] of 8.6 h.
“YAPGTFISDYSI[Aib]MDKIHQQDFVNWLLAQKGKKNDWKHNITQ [Example 75, (Pro^3, Aib^13)hGIP(1-42)-OH]” gave a half-life at 0.1 mg/ml [1] of 26.1 h and a half-life at 0.1 mg/ml [2] of 1.9 h.
Work on `CC[C@H](C)[C@H](NC(=O)[C@H](CCCCN)NC(=O)[C@H](CC(=O)O)NC(=O)C1(NC(=O)[C@H](C)NC(=O)[C@@H](NC(=O)C2(NC(=O)[C@H](Cc3ccc(O)cc3)NC(=O)[C@H](CC(=O)O)NC(=O)[C@H](CO)NC(=O)[C@@H](NC(=O)[C@H](Cc3ccccc3)NC(=O)[C@@H](NC(=O)CNC(=O)[C@@H]3CCCCN3C(=O)[C@H](C)NC(=O)[C@@H](N)Cc3ccc(O)cc3)[C@@H](C)O)[C@@H](C)CC)CCCC2)[C@@H](C)CC)CCCCC1)C(=O)N[C@@H](Cc1c[nH]cn1)C(=O)N[C@@H](CCC(N)=O)C(=O)N[C@@H](CCC(N)=O)C(=O)N[C@@H](CC(=O)O)C(=O)N[C@@H](Cc1ccccc1)C(=O)N[C@H](C(=O)N[C@@H](CC(N)=O)C(=O)N[C@@H](Cc1c[nH]c2ccccc12)C(=O)N[C@@H](CC(C)C)C(=O)N[C@@H](CC(C)C)C(=O)N[C@@H](C)C(=O)N[C@@H](CCC(N)=O)C(=O)N[C@@H](CCCCN)C(=O)NCC(=O)N[C@@H](CCCCN)C(=O)N[C@@H](CCCCN)C(=O)N[C@@H](CC(N)=O)C(=O)N[C@@H](CC(=O)O)C(=O)N[C@@H](Cc1c[nH]c2ccccc12)C(=O)N[C@@H](CCCCN)C(=O)N[C@@H](Cc1c[nH]cn1)C(=O)N[C@@H](CC(N)=O)C(=O)N[C@H](C(=O)N[C@H](C(=O)N[C@@H](CCC(N)=O)C(=O)O)[C@@H](C)O)[C@@H](C)CC)C(C)C` [Example 83, (hPro^3, A5c^11, A6c^14)hGIP(1-42)-OH] yielded a half-life at 0.1 mg/ml [1] of 32.4 h and a half-life at 0.1 mg/ml [2] of 1.1 h.
For “YAPGTFISDYSIA[Ac6c]DKIHQQDFVNWLLAQKGKKNDWKHNITQ-OH [Example 91, (Pro^3, A6c^14)hGIP(1-42)-OH]”, the half-life at 0.1 mg/ml [1] was 13.4 h and the half-life at 0.1 mg/ml [2] was 1 h.
“Y[Aib]EGTF[Ac5c]SDYSIA[Ac5c]DKIHQQDFVNWLLAQKGKKNDWKHNITQ-OH [Example 59, (Aib^2, A5c^7, 14)hGIP(1-42)-OH]” gave a half-life at 0.1 mg/ml [1] of 24 h and a half-life at 0.1 mg/ml [2] of 13.1 h.
`CC[C@H](C)[C@H](NC(=O)[C@H](CO)NC(=O)[C@H](Cc1ccc(O)cc1)NC(=O)[C@H](CC(=O)O)NC(=O)[C@H](CO)NC(=O)C1(NC(=O)[C@H](Cc2ccccc2)NC(=O)[C@@H](NC(=O)CNC(=O)[C@H](CCC(=O)O)NC(=O)C(C)(C)NC(=O)[C@@H](N)Cc2ccc(O)cc2)[C@@H](C)O)CCCCC1)C(=O)N[C@@H](C)C(=O)NC1(C(=O)N[C@@H](CC(=O)O)C(=O)N[C@@H](CCCCN)C(=O)N[C@H](C(=O)N[C@@H](Cc2c[nH]cn2)C(=O)N[C@@H](CCC(N)=O)C(=O)N[C@@H](CCC(N)=O)C(=O)N[C@@H](CC(=O)O)C(=O)N[C@@H](Cc2ccccc2)C(=O)N[C@H](C(=O)N[C@@H](CC(N)=O)C(=O)N[C@@H](Cc2c[nH]c3ccccc23)C(=O)N[C@@H](CC(C)C)C(=O)N[C@@H](CC(C)C)C(=O)N[C@@H](C)C(=O)N[C@@H](CCC(N)=O)C(=O)N[C@@H](CCCCN)C(N)=O)C(C)C)[C@@H](C)CC)CCCCC1` [Example 39, (Aib^2, A6c^7, 14)hGIP(1-30)-NH2] (H-Y[Aib]EGTF[Ac6c]SDYSIA[Ac6c]DKIHQQDFVNWLLAQK-NH2; N-terminus assumed) gave a half-life at 0.1 mg/ml [1] of 42.3 h and a half-life at 0.1 mg/ml [2] of 43.3 h.
For “YA[Tic]GTFISDY[Ac5c]IAMDKIHQQDFVNWLLAQKGKKNDWKHNITQ-OH [Example 82, (Tic^3, A5c^11)hGIP(1-42)-OH]”, the half-life at 0.1 mg/ml [1] was 9.7 h and the half-life at 0.1 mg/ml [2] was 10.2 h.
With “Y[Aib]EG[Aib]FISDYSIAMDKIHQQDFVNWLLAQKGKKNDWKHNITQ-OH [Example 4, (Aib^2, 5)hGIP(1-42)-OH]” the half-life at 0.1 mg/ml [1] was greater than 48 h and the half-life at 0.1 mg/ml [2] was 4.8 h.
With “Y[Ac5c]EGTF[Ac5c]SDYSIA[Ac6c]DKIHQQDFVNWLLAQKGKKNDWKHNITQ-OH [Example 56, (A5c^2,7, A6c^14)hGIP(1-42)-OH]” the half-life at 0.1 mg/ml [1] was 16 h and the half-life at 0.1 mg/ml [2] was 9.2 h.
“Y[Aib]EGTF[Ac6c]SDYSIA[Nle]DKIHQQDFVNWLLAQKGKKNDWKHNI[Ac6c]Q-OH [Example 29, (Aib^2, A6c^7, 41, Nle^14)hGIP(1-42)-OH]” gave a half-life at 0.1 mg/ml [1] greater than 48 h and a half-life at 0.1 mg/ml [2] of 7.3 h.
In the case of `CCCC[C@H](NC(=O)[C@H](C)NC(=O)[C@@H](NC(=O)C1(NC(=O)[C@H](Cc2ccc(O)cc2)NC(=O)[C@H](CC(=O)O)NC(=O)[C@H](CO)NC(=O)[C@@H](NC(=O)[C@H](Cc2ccccc2)NC(=O)[C@@H](NC(=O)CNC(=O)[C@H](CCC(=O)O)NC(=O)C(C)(C)NC(=O)[C@@H](N)Cc2ccc(O)cc2)[C@@H](C)O)[C@@H](C)CC)CCCC1)[C@@H](C)CC)C(=O)N[C@@H](CC(=O)O)C(=O)N[C@@H](CCCCN)C(=O)N[C@H](C(=O)N[C@@H](Cc1c[nH]cn1)C(=O)N[C@@H](CCC(N)=O)C(=O)N[C@@H](CCC(N)=O)C(=O)N[C@@H](CC(=O)O)C(=O)N[C@@H](Cc1ccccc1)C(=O)N[C@H](C(=O)N[C@@H](CC(N)=O)C(=O)N[C@@H](Cc1c[nH]c2ccccc12)C(=O)N[C@@H](CC(C)C)C(=O)N[C@@H](CC(C)C)C(=O)N[C@@H](C)C(=O)N[C@@H](CCC(N)=O)C(=O)N[C@@H](CCCCN)C(N)=O)C(C)C)[C@@H](C)CC` [Example 50, (Aib^2, A5c^11, Nle^14)hGIP(1-30)-NH2] (H-Y[Aib]EGTFISDY[Ac5c]IA[Nle]DKIHQQDFVNWLLAQK-NH2; N-terminus assumed), the “Human Plasma T½” value [1] is reported as 48.1 h and the “Rat Plasma T½” value [2] is reported as greater than 54 h.
